The text below walks through data of patent publication US9770445B2, “Sulfoximine substituted 5-fluoro-N-(pyridin-2-yl)pyridin-2-amine derivatives and their use as CDK9 kinase inhibitors” (BAYER PHARMA AKTIENGESELLSCHAFT, priority 2013, dated 2017).

Experiment [1] concerns HeLa, human cervical tumour cells. Nature of the experiment: Proliferation assay, HeLa (crystal violet). The class given is cell-based. As to conditions: 96 h, 4 days, read-out: Inhibition of HeLa cell proliferation. On the procedure:
(§1) Cultivated tumour cells (HeLa, human cervical tumour cells, ATCC CCL-2; NCI-H460, human non-small cell lung carcinoma cells, ATCC HTB-177; A2780, human ovarian carcinoma cells, ECACC #93112519; DU 145, hormone-independent human prostate carcinoma cells, ATCC HTB-81; HeLa-MaTu-ADR, multidrug-resistant human cervical carcinoma cells, EPO-GmbH Berlin; Caco-2, human colorectal carcinoma cells, ATCC HTB-37; B16F10, mouse melanoma cells, ATCC CRL-6475) were plated at a density of 5,000 cells/well (DU145, HeLa-MaTu-ADR), 3,000 cells/well (NCI-H460, HeLa), 2,500 cells/well (A2780), 1,500 cells/well (Caco-2), or 1,000 cells/well (B16F10) in a 96-well multititer plate in 200 μL of their respective growth medium supplemented 10% fetal calf serum. After 24 hours, the cells of one plate (zero-point plate) were stained with crystal violet (see below), while the medium of the other plates was replaced by fresh culture medium (200 μl), to which the test substances were added in various concentrations (0 μM, as well as in the range of 0.001-10 μM; the final concentration of the solvent dimethyl sulfoxide was 0.5%). The cells were incubated for 4 days in the presence of test substances. Cell proliferation was determined by staining the cells with crystal violet: the cells were fixed by adding 20 μl/measuring point of an 11% glutaric aldehyde solution for 15 minutes at room temperature. After three washing cycles of the fixed cells with water, the plates were dried at room temperature. The cells were stained by adding 100 μl/measuring point of a 0.1% crystal violet solution (pH 3.0). After three washing cycles of the stained cells with water, the plates were dried at room temperature. The dye was dissolved by adding 100 μl/measuring point of a 10% acetic acid solution. The extinction was determined by photometry at a wavelength of 595 nm. The change of cell number, in percent, was calculated by normalization of the measured values to the extinction values of the zero-point plate (=0%) and the extinction of the untreated (0 μm) cells (=100%). The IC50 values (inhibitory concentration at 50% of maximal effect) were determined by means of a 4 parameter fit.

The subject of experiment [2] is NCI-H460, human non-small cell lung carcinoma cells. Nature of the experiment: Proliferation assay, NCI-H460 (crystal violet). Format: cell-based. As to conditions: 96 h, NCI-H460, 4 days, read-out: Inhibition of NCI-H460 cell proliferation. On the procedure: as §1
The subject of experiment [3] is HeLa-MaTu-ADR, multidrug-resistant human cervical carcinoma cells. Nature of the experiment: Proliferation assay, HeLa-MaTu-ADR (crystal violet). The class given is cell-based. As to conditions: 96 h, 4 days, read-out: Inhibition of HeLa-MaTu-ADR cell proliferation. On the procedure: as §1
Experiment [4] deals with Caco-2, human colorectal carcinoma cells. Nature of the experiment: Proliferation assay, Caco-2 (crystal violet). The class given is cell-based. As to conditions: 96 h, Caco-2, 4 days, read-out: Inhibition of Caco-2 cell proliferation. On the procedure: as §1
The test system of experiment [5] is B16F10, mouse melanoma cells. Nature of the experiment: Proliferation assay, B16F10 (crystal violet). As to conditions: B16-F10, 96 h, B16F10, 4 days, read-out: Inhibition of B16F10 cell proliferation. Format: cell-based. On the procedure:
as §1

For a further experiment, the target named is T1, CDK9/CycT1 (Homo sapiens, UniProt P50750).
T1 construct: Recombinant full-length His-tagged human CDK9 and CycT1; His; purchased Invitrogen PV4131; host or cells: insect cells
As to the kind of experiment: CDK9/CycT1 kinase assay (Method 1a, TR-FRET). As to conditions: for IC50: Method 1a, 10 μM ATP; for Selectivity CDK9 over CDK2: IC50 (CDK2)/IC50 (CDK9): ratio of Method 2 to Method 1a values. The class given is biochemical. The text has this:
1a. CDK9/CyeT1 Kinase Assay:
CDK9/CycT1-inhibitory activity of compounds of the present invention was quantified employing the CDK9/CycT1 TR-FRET assay as described in the following paragraphs:
Recombinant full-length His-tagged human CDK9 and CycT1, expressed in insect cells and purified by Ni-NTA affinity chromatography, were purchased from Invitrogen (Cat. No PV4131). As substrate for the kinase reaction biotinylated peptide biotin-Ttds-YISPLKSPYKISEG (C-terminus in amid form) was used which can be purchased e.g. form the company JERINI Peptide Technologies (Berlin, Germany). For the assay 50 nl of a 100 fold concentrated solution of the test compound in DMSO was pipetted into a black low volume 384 well microtiter plate (Greiner Bio-One, Frickenhausen, Germany), 2 μl of a solution of CDK9/CycT1 in aqueous assay buffer [50 mM Tris/HCl pH 8.0, 10 mM MgCl2, 1.0 mM dithiothreitol, 0.1 mM sodium ortho-vanadate, 0.01% (v/v) Nonidet-P40 (Sigma)] were added and the mixture was incubated for 15 min at 22° C. to allow pre-binding of the test compounds to the enzyme before the start of the kinase reaction. Then the kinase reaction was started by the addition of 3 μl of a solution of adenosine-tri-phosphate (ATP, 16.7 μM=>final conc. in the 5 μl assay volume is 10 μM) and substrate (1.67 μM=>final conc. in the 5 μl assay volume is 1 μM) in assay buffer and the resulting mixture was incubated for a reaction time of 25 min at 22° C. The concentration of CDK9/CycT1 was adjusted depending of the activity of the enzyme lot and was chosen appropriate to have the assay in the linear range, typical concentrations were in the range of 1 μg/mL. The reaction was stopped by the addition of 5 μl of a solution of TR-FRET detection reagents (0.2 μM streptavidine-XL665 [Cisbio Bioassays, Codolet, France] and 1 nM anti-RB(pSer807/pSer811)-antibody from BD Pharmingen [#558389] and 1.2 nM LANCE EU-W1024 labeled anti-mouse IgG antibody [Perkin-Elmer, product no. AD0077]) in an aqueous EDTA-solution (100 mM EDTA, 0.2% (w/v) bovine serum albumin in 100 mM HEPES/NaOH pH 7.0).
The resulting mixture was incubated 1 h at 22° C. to allow the formation of complex between the phosphorylated biotinylated peptide and the detection reagents. Subsequently the amount of phosphorylated substrate was evaluated by measurement of the resonance energy transfer from the Eu-chelate to the streptavidine-XL. Therefore, the fluorescence emissions at 620 nm and 665 nm after excitation at 350 nm was measured in a HTRF reader, e.g. a Rubystar (BMG Labtechnologies, Offenburg, Germany) or a Viewlux (Perkin-Elmer). The ratio of the emissions at 665 nm and at […] was taken as the measure for the amount of phosphorylated substrate. The data were normalised (enzyme reaction without inhibitor=0% inhibition, all other assay components but no enzyme=100% inhibition).
(In general: Time-resolved FRET reads energy transfer from a long-lived donor to a nearby acceptor.)

For experiment [6], the system named is DU 145, hormone-independent human prostate carcinoma cells. As to the kind of experiment: Proliferation assay, DU145 (crystal violet). The class given is cell-based. As to conditions: DU-145, 96 h, DU145, 4 days, read-out: Inhibition of DU145 cell proliferation. On the procedure:
as §1

T1 sequence (P50750 whole entry): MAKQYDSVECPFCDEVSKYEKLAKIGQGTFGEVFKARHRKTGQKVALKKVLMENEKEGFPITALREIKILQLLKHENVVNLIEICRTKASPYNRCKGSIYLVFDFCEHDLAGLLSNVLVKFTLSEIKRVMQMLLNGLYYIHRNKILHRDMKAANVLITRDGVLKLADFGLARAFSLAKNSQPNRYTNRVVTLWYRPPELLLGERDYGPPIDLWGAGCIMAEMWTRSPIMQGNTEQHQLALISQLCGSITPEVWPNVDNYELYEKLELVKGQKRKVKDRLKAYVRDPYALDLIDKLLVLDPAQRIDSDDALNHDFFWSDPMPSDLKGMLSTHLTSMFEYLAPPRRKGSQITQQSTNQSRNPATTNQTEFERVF
T1 sequence (O60563 whole entry partner): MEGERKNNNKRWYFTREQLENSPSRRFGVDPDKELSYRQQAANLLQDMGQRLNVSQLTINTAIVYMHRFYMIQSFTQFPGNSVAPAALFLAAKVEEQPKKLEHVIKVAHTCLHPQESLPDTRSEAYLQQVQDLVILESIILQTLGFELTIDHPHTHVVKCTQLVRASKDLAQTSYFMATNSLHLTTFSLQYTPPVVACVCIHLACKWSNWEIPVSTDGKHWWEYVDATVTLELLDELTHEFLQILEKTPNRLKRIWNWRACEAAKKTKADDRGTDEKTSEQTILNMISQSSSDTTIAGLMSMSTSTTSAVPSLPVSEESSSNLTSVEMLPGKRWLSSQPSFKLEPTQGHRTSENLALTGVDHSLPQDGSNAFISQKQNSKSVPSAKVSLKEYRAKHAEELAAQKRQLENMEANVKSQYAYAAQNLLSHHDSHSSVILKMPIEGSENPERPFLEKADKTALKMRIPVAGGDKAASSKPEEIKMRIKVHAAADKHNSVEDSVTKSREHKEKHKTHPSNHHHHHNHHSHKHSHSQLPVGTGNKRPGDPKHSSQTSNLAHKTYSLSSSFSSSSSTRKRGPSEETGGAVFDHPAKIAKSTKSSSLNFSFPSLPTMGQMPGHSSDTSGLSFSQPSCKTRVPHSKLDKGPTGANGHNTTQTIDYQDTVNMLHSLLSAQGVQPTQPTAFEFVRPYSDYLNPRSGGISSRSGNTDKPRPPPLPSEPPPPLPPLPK

In the case of `Cc1cc(CS(C)(=N)=O)cc(Nc2cc(-c3ccc(F)c4ccoc34)c(F)cn2)n1` (racemic) [Example 7, (rac)-5-Fluoro-4-(4-fluoro-1-benzofuran-7-yl)-N-{6-methyl-4-[(S-methylsulfonimidoyl)-methyl]pyridin-2-yl}pyridin-2-amine], the IC50 in experiment [1] amounted to 11 nM; in experiment [2], 33 nM; in experiment [3], 9.1 nM; in experiment [4], 14 nM; in experiment [5], 17 nM; against CDK9/CycT1 it was 2.1 nM. In experiment [6], the IC50 is 14 nM. The “Selectivity CDK9 over CDK2: IC50 (CDK2)/IC50 (CDK9)” value (shortened to “Selectivity CDK9 over CDK2: IC50”) at CDK9/CycT1 stood at 19.

For the compound `CS(=N)(=O)Cc1cc(Nc2cc(-c3ccc(F)c4ccoc34)c(F)cn2)nc(C(F)(F)F)c1` (racemic) [Example 3, (rac)-5-Fluoro-4-(4-fluoro-1-benzofuran-7-yl)-N-{4-[(S-methylsulfonimidoyl)methyl]-6-(trifluoromethyl)pyridin-2-yl}pyridin-2-amine], the IC50 in experiment [1] was 6 nM; in experiment [2], 21 nM; in experiment [3], 11 nM; in experiment [4] it was 19 nM; in experiment [5], 19 nM; against CDK9/CycT1, 5.8 nM. Besides, the IC50 in experiment [6] came to 15 nM. Further, the “Selectivity CDK9 over CDK2: IC50” value at CDK9/CycT1 worked out at 3.6.

As to `CS(=N)(=O)Cc1ccnc(Nc2cc(-c3ccc(F)c4ccoc34)c(F)cn2)c1` (racemic) [Example 5, (rac)-5-Fluoro-4-(4-fluoro-1-benzofuran-7-yl)-N-{4-[(S-methylsulfonimidoyl)methyl]pyridin-2-yl}pyridin-2-amine], the IC50 in experiment [1] was found to be 31 nM; in experiment [2], 120 nM; in experiment [3], 42 nM; in experiment [4] it was 46 nM; in experiment [5], 53 nM; against CDK9/CycT1, 3.4 nM. Further, the IC50 in experiment [6] was 55 nM. Besides, the “Selectivity CDK9 over CDK2: IC50” value on CDK9/CycT1 was determined as 38.
